According to ChEMBL document CHEMBL5579898, “Between Theory and Practice: Computational/Experimental Integrated Approaches to Understand the Solubility and Lipophilicity of PROTACs” (J Med Chem, 2024):
≈ marks a conversion by molar mass, not a printed value. Non-standard residues stand in square brackets, D forms with d. Residues, ends and D or L forms follow the SMILES beside them. *: point of attachment. X1 = Fc1ccc(-c2csc(N3CCOCC3)n2)c(OCCOCCOCCN*)c1F; X2 = O=C(NCCCCCCN*)c1cccc2sc(N3CCOCC3)nc12; Dip = N[C@H](C(=O)O)C(c1ccccc1)c1ccccc1; Chg = N[C@H](C(=O)O)C1CCCCC1; NMeA = CN[C@@H](C)C(=O)O

Columns and labels:
Assay type in all cases: physicochemical
[1] = Distribution coefficient, logD of compound in n-Octanol/PBS at pH 7.4 incubated for 30 mins under shaking condition by UHPLC-MS analysis
[2] = Kinetic solubility of the compound incubated for 60 mins under shaking condition by UHPLC-MS analysis; conditions: 1 h
[3] = Kinetic solubility of the compound incubated for 60 mins under shaking condition by UV-Vis spectroscopic analysis; conditions: 1 h
[4] = Distribution coefficient, logD of compound in n-Octanol/PBS at pH 7.4 incubated for 30 mins under shaking condition by UV-Vis spectroscopic analysis; conditions: for logD: octanol/water, pH 7.4, 0.5 h, BLD = below limit of detection; for logD at 0.5 h: n-octanol/PBS, pH 7.4
[5] = Kinetic solubility of the compound in universal buffer at pH 7.4 incubated for 60 mins under shaking condition by UHPLC-MS analysis; conditions: read-out: Kinetic_solubility
[6] = Kinetic solubility of the compound in PBS buffer at 50 mM pH 7.4 incubated for 60 mins under shaking condition by UHPLC-MS analysis; conditions: read-out: Kinetic_solubility
[7] = Dissociation constant, pKa of the compound

| SMILES | logD at 0.5 h [1] | log(Kinetic_solubility) [2] | log(Kinetic_solubility) ([3]; BLD = below limit of detection) | logD [4] | solubility kinetic at 1 h [5] [µM] | log(Kinetic_solubility) [3] | solubility kinetic at 1 h [6] [µM] | pKa [7] | logD at 0.5 h [4] | log(Kinetic_solubility) ([2]; BLD = below limit of detection) |
| --- | --- | --- | --- | --- | --- | --- | --- | --- | --- | --- |
| Cc1ncsc1-c1ccc([C@H](C)NC(=O)[C@@H]2C[C@@H](O)CN2C(=O)[C@@H](NC(=O)CCCCNC(=O)COc2c(-c3csc(N4CCOCC4)n3)ccc(F)c2F)C(C)(C)C)cc1 | 4.98 | -4.72 |  | Bld | 12 (≈ 10.6 µg/mL) | -4.72 | 17 (≈ 15 µg/mL) |  |  |  |
| COc1ccc2c(c1)c(CC(=O)N1CCN(CCC(=O)N[C@H](C(=O)N3C[C@H](O)C[C@H]3C(=O)N[C@@H](C)c3ccc(-c4scnc4C)cc3)C(C)(C)C)CC1)c(C)n2C(=O)c1ccc(Cl)cc1 | 5.5 | -6.1 | Bld | Bld |  |  |  |  |  |  |
| Cc1ncsc1-c1ccc([C@H](C)NC(=O)[C@@H]2C[C@@H](O)CN2C(=O)[C@@H](NC(=O)CCCCCCOc2ccc3c(c2)c(C(=O)O)c(C)n3Cc2ccccc2)C(C)(C)C)cc1 | 5 | -5.8 | Bld | Bld |  |  |  |  |  |  |
| CCOC(=O)c1c(C)n(Cc2ccccc2)c2ccc(OCC(=O)NCCCC(=O)N[C@H](C(=O)N3C[C@H](O)C[C@H]3C(=O)N[C@@H](C)c3ccc(-c4scnc4C)cc3)C(C)(C)C)cc12 | 5.1 | -6.23 | Bld | Bld |  |  |  |  |  |  |
| CCOC(=O)c1c(C)n(Cc2ccccc2)c2ccc(OCCCCCCC(=O)N[C@H](C(=O)N3C[C@H](O)C[C@H]3C(=O)N[C@@H](C)c3ccc(-c4scnc4C)cc3)C(C)(C)C)cc12 | 5.15 |  | Bld | Bld |  |  |  |  |  | Bld |
| CN[C@@H](C)C(=O)N[C@H](C(=O)N1CCC[C@H]1C(=O)N[C@H](C(=O)NCCCCCCNC(=O)c1cccc2sc(N3CCOCC3)nc12)C(c1ccccc1)c1ccccc1)C1CCCCC1 (H-[NMeA][Chg]P[Dip]-X2) | 5.1 | -4.72 |  | Bld |  | -4.66 |  |  |  |  |
| N#Cc1ccc(O[C@H]2CC[C@H](NC(=O)c3ccc(N4CCC(CN5CCN(c6cc7c(cc6F)C(=O)N(C6CCC(=O)NC6=O)C7=O)CC5)CC4)nn3)CC2)cc1Cl (some centres not stated) [BAVDEGALUTAMIDE] | 5.38 |  | Bld | Bld |  |  |  |  |  | Bld |

Results, then the molecule that gave them:

| logD at 0.5 h [1] | log(Kinetic_solubility) [2] | log(Kinetic_solubility) ([3]; BLD = below limit of detection) | logD [4] | solubility kinetic at 1 h [5] [µM] | log(Kinetic_solubility) [3] | solubility kinetic at 1 h [6] [µM] | pKa [7] | logD at 0.5 h [4] | log(Kinetic_solubility) ([2]; BLD = below limit of detection) | SMILES |
| --- | --- | --- | --- | --- | --- | --- | --- | --- | --- | --- |
| 5.2 | -7.05 | Bld | Bld |  |  |  |  |  |  | Cc1ncsc1-c1ccc(CNC(=O)[C@@H]2C[C@@H](O)CN2C(=O)[C@@H](NC(=O)CCCCOCCCCCOCCCCCCNc2cccc3c2C(=O)N(C2CCC(=O)NC2=O)C3=O)C(C)(C)C)cc1 (some centres not stated) |
| 3.82 | -5.15 |  |  | 71 (≈ 59.6 µg/mL) | -4.15 |  | 4.49 | 3.3 |  | Cc1sc2c(c1C)C(c1ccc(Cl)cc1)=N[C@@H](CC(=O)NCCCN1CCN(CCCNc3cccc4c3C(=O)N(C3CCC(=O)NC3=O)C4=O)CC1)c1nnc(C)n1-2 (some centres not stated) |
| 5.5 | -7.33 | Bld | Bld | 0.05 (≈ 0.0392 µg/mL) |  |  | 7.98 |  |  | Cc1sc2c(c1C)C(c1ccc(Cl)cc1)=N[C@@H](CC(=O)NCCCCCCCCNc1cccc3c1C(=O)N(C1CCC(=O)NC1=O)C3=O)c1nnc(C)n1-2 (some centres not stated) |
| 4.27 | -6.77 | Bld |  |  |  |  |  | 3.92 |  | O=C1CCC(N2C(=O)c3cccc(NCCOCCOCCOCCn4cc(COc5ccc(N(C(=O)CCl)C(C(=O)NCCc6ccccc6)c6cccs6)cc5Cl)nn4)c3C2=O)C(=O)N1 (configuration not stated) |
| 5.2 |  | Bld | Bld |  |  |  |  |  | Bld | CCOC(=O)c1c(C)n(Cc2ccccc2)c2ccc(OCCCCCCCCCCC(=O)N[C@H](C(=O)N3C[C@H](O)C[C@H]3C(=O)N[C@@H](C)c3ccc(-c4scnc4C)cc3)C(C)(C)C)cc12 |
| 5.21 |  | Bld | Bld |  |  |  |  |  | Bld | CCOC(=O)c1c(C)n(Cc2ccccc2)c2ccc(OCCCCCCCCC(=O)N[C@H](C(=O)N3C[C@H](O)C[C@H]3C(=O)N[C@@H](C)c3ccc(-c4scnc4C)cc3)C(C)(C)C)cc12 |
| 5.1 | -4.55 |  | Bld |  | -4.49 |  |  |  |  | CN[C@@H](C)C(=O)N[C@H](C(=O)N1CCC[C@H]1C(=O)N[C@H](C(=O)NCCOCCOCCOc1c(-c2csc(N3CCOCC3)n2)ccc(F)c1F)C(c1ccccc1)c1ccccc1)C1CCCCC1 (H-[NMeA][Chg]P[Dip]-X1) |
